Laboratory results: patent US20240417773A1 (priority 2022, published 2024)
Where two headings read alike, the source gives them in different places.

Experiments:
[1] = tested on: spores of the Bacillus atrophaeus; conditions: 50° C., 1.74 mg/L; for Observation result: excitation 365 nm
Experimental: A bacterial carrier on each indicator includes about 106 spores of the Bacillus atrophaeus. The six indicators are divided into three groups, each of which has two indicators. […] A treatment for 0 sec at 50° C. means that no treatment is performed, and is a control group; a treatment for 20 sec at 50° C. simulates a condition of incomplete sterilization; and treatment for 60 sec at 50° C. simulates a condition of successful sterilization where all the spores are supposed to be skilled theoretically. An exposure position of the indicator is located at a cold spot of a sterilization device. A sample subjected to the sterilization treatment is transferred onto a bechtop. Bacteria strips included in the biological indicators in the three groups after the sterilization treatment are taken out by means of sterilized tweezers, put in a sterile centrifuge tube, added with an appropriate quantity of sterile recovered liquid (0.1% polysorbate 80, and 0.03 M phosphate buffer liquid with pH being 7.2), fully oscillated and crushed. Afterwards, the centrifuge tube is put in an ice-bath for cooling.
Then, a sample in the centrifuge tube is subjected to centrifugation (a centrifugal force being 2000×g, a temperature being 4° C. and a centrifugation duration being 20 min), an obtained supernatant passes through a 10 μm millipore filter (a spore diameter is 1 μm to 2 μm, so in order to make the spores pass through the filter and the bacteria strip slags are blocked, a filter of 2 μm or above is needed), so as to obtain filtrate.
An appropriate amount of sterile recovered liquid is added into filtered slags (a main component is a crushed bacteria strip fiber) obtained after the above centrifugal filtration, after oscillating and shaking well, the above centrifugal filtration process is repeated, filtrate including thermal-damaged spores is further recovered, repetition is performed for 2 to 3 times like this, and the filtrate obtained by each centrifugal filtration is gathered as the spore suspension.
(§1) One drop of the liquid medium (30 g/L agar and 15 g/L tryptic soy broth) subjected to high-temperature sterilization is dropwise added onto an object slide, after this drop of the liquid medium is solidified, one drop of the 4-MUG with a concentration being 210 mg/L is dropwise added onto the solid medium, and a moment later, the 4-MUG fully infiltrates into the solid medium.
(§2) One drop of the spore suspension (including the thermal-damaged spores) is dropwise added onto the solid medium.
The number and sizes of fluorescent spots are observed under the observation system. […]

[2] = tested on: spore strips produced by Xinhua Mesa®Strip; conditions: 50° C., 1.74 mg/L; for Observation result: excitation 365 nm
Experimental: This embodiment selects six spore strips produced by Xinhua Mesa®Strip, which are divided into three groups and each group has two strips. […] A treatment for 0 sec at 50° C. means that no treatment is performed, and is a control group; a treatment for 20 sec at 50° C. simulates a condition of incomplete sterilization; and treatment for 60 sec at 50° C. simulates a condition of successful sterilization where all the spores are supposed to be skilled theoretically. An exposure position of the indicator is located at a cold spot of a sterilization device. A sample subjected to the sterilization treatment is transferred onto a bechtop. Bacteria strips included in the biological indicators in the three groups after the sterilization treatment are taken out by means of sterilized tweezers, put in a sterile centrifuge tube, added with an appropriate amount of sterile recovered liquid (0.1% polysorbate 80, and 0.03 M phosphate buffer liquid with pH being 7.2), fully oscillated and crushed. Afterwards, the centrifuge tube is put in an ice-bath for cooling.
as §1, §2
The number and sizes of fluorescent spots are observed under the observation system. The observation system is composed of four parts: 1) a stereoscopic microscope (a brand model may be: Nikon SMZ800); 2) a time gating camera (a brand model may be: Photonics Research Systems, Salford, UK) mounted on the above stereoscopic microscope; 3) a xenon flash lamp (a brand model may be: PerkinElmer, Waltham, MA) forming a 45° angle relative to a sample; and 4) a temperature-controlled microscope object slide stand (a brand model may be: Thermal).
Parameters set for the observation system are as follows: the xenon flash lamp has an excitation wavelength of 365 nm and an excitation slit width of 10 nm. Observed by the stereoscopic microscope, an emission wavelength is 544 nm, and an emission slit is 10 nm.

## OO [hydrogen peroxide]
[1]; 20 sec
  Conclusion: Incomplete
  Observation result: A certain quantity of scattered
[1]; 60 sec
  Conclusion: Complete
  Observation result: No fluorescent spot
[2]; 20 sec
  Conclusion: Incomplete
  Observation result: A certain quantity of scattered
[2]; 60 sec
  Conclusion: Complete
  Observation result: No fluorescent spot
